The results in this text go back to PubChem BioAssay AID1919003 (Molecular Pharmacology Branch, DTP, NCI, 2023).

Each structure is given as a SMILES string. Where “and” joins values, the source holds several entries; their conditions need not be identical. Identical values can stand only once.

This assay deals with 786-0 complex spheroids with HUVEC/MSC, growth % test/control. Kind of assay: Anticancer human tumor 786-0 cell line growth inhibition [AhR].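 On all read-outs here: compound exposure lasted seven days before the read-out.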 Particulars: for viability, T/C: stronger effect = lower value. The essentials:
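Agents were dosed in half-log steps down from roughly clinical Cmax, or from 10 microM where Cmax was unknown, alone and with AhR antagonists. Read-out: percent test/control growth of tumor spheroids containing HUVEC and MSC stromal cells.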

Setting [1] is: curve of first compound, second compound 0.1 µM.
[2] abbreviates: curve of first compound, second compound 0.316 µM.
Where [3] appears, read: curve of first compound, second compound 1 µM.
The mark [4] stands for this setting: curve of first compound, second compound 3.16 µM.
The mark [5] stands for this setting: curve of first compound, second compound 10 µM.
Setting [6] is: second compound 0.1 µM, first compound 0.0316 µM.
Setting [7] is: second compound 0.1 µM, first compound 0.1 µM.
Where [8] appears, read: second compound 0.1 µM, first compound 0.316 µM.
[9] abbreviates: second compound 0.1 µM, first compound 1 µM.
Where [10] appears, read: second compound 0.1 µM, first compound 3.16 µM.
Where [11] appears, read: second compound 0.1 µM, first compound 10 µM.
[12] abbreviates: second compound 0.316 µM, first compound 0.0316 µM.
The mark [13] stands for this setting: second compound 0.316 µM, first compound 0.1 µM.
The mark [14] stands for this setting: second compound 0.316 µM, first compound 0.316 µM.
The mark [15] stands for this setting: second compound 0.316 µM, first compound 1 µM.
Setting [16] is: second compound 0.316 µM, first compound 3.16 µM.
The mark [17] stands for this setting: second compound 0.316 µM, first compound 10 µM.
Where [18] appears, read: second compound 1 µM, first compound 0.0316 µM.
[19] abbreviates: second compound 1 µM, first compound 0.1 µM.
The mark [20] stands for this setting: second compound 1 µM, first compound 0.316 µM.
The mark [21] stands for this setting: second compound 1 µM, first compound 1 µM.
[22] abbreviates: second compound 1 µM, first compound 3.16 µM.
Setting [23] is: second compound 1 µM, first compound 10 µM.
The mark [24] stands for this setting: second compound 3.16 µM, first compound 0.0316 µM.
[25] abbreviates: second compound 3.16 µM, first compound 0.1 µM.
Setting [26] is: second compound 3.16 µM, first compound 0.316 µM.
The mark [27] stands for this setting: second compound 3.16 µM, first compound 1 µM.
[28] abbreviates: second compound 3.16 µM, first compound 3.16 µM.
The mark [29] stands for this setting: second compound 3.16 µM, first compound 10 µM.
[30] abbreviates: second compound 10 µM, first compound 0.0316 µM.
Where [31] appears, read: second compound 10 µM, first compound 0.1 µM.
Where [32] appears, read: second compound 10 µM, first compound 0.316 µM.
The mark [33] stands for this setting: second compound 10 µM, first compound 1 µM.
The mark [34] stands for this setting: second compound 10 µM, first compound 3.16 µM.
Where [35] appears, read: second compound 10 µM, first compound 10 µM.

One may read the IC50 as the concentration that gives 50% inhibition. As a reminder, the viability, T/C is the ratio of treated to control. As for `COc1cc(Nc2ncc3c(n2)-c2ccc(Cl)cc2C(c2c(F)cccc2OC)=NC3)ccc1C(=O)O` + Cc1cncc(-c2nc(NCCc3c[nH]c4ccccc34)c3ncn(C(C)C)c3n2)c1, the IC50 is, setting by setting: under setting [1], 6.87 µM; under setting [2], 6.37 µM; under setting [3], 6.55 µM; under setting [4], 7.76 µM; under setting [5], < 0.0316 µM. Moreover, the viability, T/C is, setting by setting: under setting [6], 115%; under setting [7], 115%; under setting [8], 155%; under setting [9], 104%; under setting [10], 75.5%; under setting [11], 38.2%. Besides, the viability, T/C under setting [12] was 121%; the viability, T/C under setting [13] is 121%; the viability, T/C under setting [14] is 144%; the viability, T/C under setting [15] is 123%; the viability, T/C under setting [16] was 69%; the viability, T/C under setting [17] is 37.8%. The viability, T/C by setting is: under setting [18], 115%; under setting [19], 125%; under setting [20], 152%; under setting [21], 114%; under setting [22], 71.2%; under setting [23], 37.9%. In addition, the viability, T/C is, setting by setting: under setting [24], 63.3%; under setting [25], 68.3%; under setting [26], 94.2%; under setting [27], 92.3%; under setting [28], 70.1%; under setting [29], 44.4%. Moreover, the viability, T/C under setting [30] was 4.3%; the viability, T/C under setting [31] is 1.69%; the viability, T/C under setting [32] was 2.04%; the viability, T/C under setting [33] was 3.84%; the viability, T/C under setting [34] was 4.27%; the viability, T/C under setting [35] was 16.9%.
`CC1COCCN1c1cc(C2(S(C)(=N)=O)CC2)nc(-c2ccnc3[nH]ccc23)n1` (stereo not drawn) + Cc1ccccc1N=Nc1ccc(NC(=O)c2ccnn2C)c(C)c1: the IC50 is 6.08 µM under setting [1]; 5.93 µM under setting [2]; 6.52 µM under setting [3]; 6.44 µM under setting [4]; 5.28 µM under setting [5]. Besides, the viability, T/C under setting [6] is 96.9%; the viability, T/C under setting [7] was 103%; the viability, T/C under setting [8] is 97.7%; the viability, T/C under setting [9] is 101%; the viability, T/C under setting [10] was 79.6%; the viability, T/C under setting [11] is 27.6%. The viability, T/C runs as follows: under setting [12], 92%; under setting [13], 97.6%; under setting [14], 102%; under setting [15], 106%; under setting [16], 72.7%; under setting [17], 31.1%. The viability, T/C under setting [18] is 98%; the viability, T/C under setting [19] is 96.8%; the viability, T/C under setting [20] is 103%; the viability, T/C under setting [21] is 93.2%; the viability, T/C under setting [22] is 79.5%; the viability, T/C under setting [23] was 32.8%. Also, the viability, T/C under setting [24] was 99.9%; the viability, T/C under setting [25] is 105%; the viability, T/C under setting [26] is 91.5%; the viability, T/C under setting [27] was 89.2%; the viability, T/C under setting [28] is 70.3%; the viability, T/C under setting [29] is 37.1%. Further, the viability, T/C is, setting by setting: under setting [30], 97.7%; under setting [31], 97.2%; under setting [32], 102%; under setting [33], 88.5%; under setting [34], 62.5%; under setting [35], 34.8%.
For `Nc1ncn(C2CC(O)C(CO)O2)c(=O)n1` (stereo not drawn) + Cc1cncc(-c2nc(NCCc3c[nH]c4ccccc34)c3ncn(C(C)C)c3n2)c1, the concentration for half-maximal inhibition (IC50) under setting [1] is > 1 µM; the IC50 under setting [2] was > 1 µM; the half-inhibitory concentration (IC50) under setting [3] was > 1 µM; the half-maximal inhibitory concentration (IC50) under setting [4] was > 1 µM; the IC50 under setting [5] was < 0.00316 µM. Moreover, the viability, T/C is, setting by setting: (second compound 0.1 µM, first compound 0.00316 µM) 123%; (second compound 0.1 µM, first compound 0.01 µM) 115%; under setting [6], 118%; under setting [7], 115%; under setting [8], 106%; under setting [9], 95.8%. Further, the viability, T/C (second compound 0.316 µM, first compound 0.00316 µM) is 116%; the viability, T/C (second compound 0.316 µM, first compound 0.01 µM) was 128%; the viability, T/C under setting [12] is 117%; the viability, T/C under setting [13] is 127%; the viability, T/C under setting [14] was 113%; the viability, T/C under setting [15] is 103%. For the same compound, the viability, T/C reads like this: (second compound 1 µM, first compound 0.00316 µM) 124%; (second compound 1 µM, first compound 0.01 µM) 116%; under setting [18], 123%; under setting [19], 112%; under setting [20], 99%; under setting [21], 96.9%. For the same compound, the viability, T/C is 77.5% (second compound 3.16 µM, first compound 0.00316 µM); 80.4% (second compound 3.16 µM, first compound 0.01 µM); 78.5% under setting [24]; 90.4% under setting [25]; 85.4% under setting [26]; 76.2% under setting [27]. In addition, the viability, T/C by setting is: (second compound 10 µM, first compound 0.00316 µM) 8.18%; (second compound 10 µM, first compound 0.01 µM) 13.5%; under setting [30], 11.1%; under setting [31], 9.3%; under setting [32], 8.63%; under setting [33], 10.9%.
As for `COc1cccc2c1C(=O)c1c(O)c3c(c(O)c1C2=O)CC(O)(C(=O)CO)CC3OC1CC(N)C(O)C(C)O1` (stereo not drawn), the viability, T/C is 58.8% and 70% and 62% (compound 0.0316 µM); 51.9% and 65.6% and 44.9% (compound 0.1 µM); 23.9% and 30.9% and 18.1% (compound 0.316 µM); 7% and 10.7% and 3.15% (compound 1 µM); 0.81% and 3.57% and 0.53% (compound 3.16 µM); 0.36% and 3.07% and 0.69% (compound 10 µM). The 50% inhibitory concentration (IC50) (curve of compound) was 0.104 µM and 0.166 µM and 0.0718 µM.
In the case of `CC1COCCN1c1cc(C2(S(C)(=N)=O)CC2)nc(-c2ccnc3[nH]ccc23)n1` (stereo not drawn), the viability, T/C was 110% and 102% and 98.7% (compound 0.0316 µM); 110% and 102% and 98.6% (compound 0.1 µM); 96.8% and 101% and 93.2% (compound 0.316 µM); 96.6% and 96.8% and 94% (compound 1 µM); 64.5% and 88.2% and 47.7% (compound 3.16 µM); 17.9% and 27.9% and 15.4% (compound 10 µM). For the same compound, the IC50 (curve of compound) is 4.62 µM and 6.58 µM and 2.99 µM.
As for `Cc1ccccc1N=Nc1ccc(NC(=O)c2ccnn2C)c(C)c1`, the viability, T/C (compound 0.1 µM) was 99.5% [middle of 20 runs]; the viability, T/C (compound 0.316 µM) was 99.1% [middle of 20 runs]; the viability, T/C (compound 1 µM) is 97.1% [middle of 20 runs]. Also, the 50% inhibitory concentration (IC50) (compound alone, run of 08/22/2022) is > 10 µM.
